Results reported in ChEMBL document CHEMBL1201862, “PubChem BioAssay data set” (2004).
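A five-concentration, 48-hour dose response in 96-well plates underlies each endpoint, interpolated linearly between surrounding concentrations. Abbreviation: GI50, concentration required for 50% inhibition of growth.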 Activity calls are given as the source filed them. No stated cut-off is given here; in the data, active = GI50 up to about 1.1 µM and inactive = higher.

Assays:
Experiment in all cases: NCI tumour cell line growth inhibition, 48 h
CAKI-1 = test system: CAKI-1
SF-268 = test system: SF-268
EKVX = test system: EKVX
SNB-19 = test system: SNB-19
OVCAR-8 = test system: OVCAR-8
SW-620 = test system: SW-620
TK-10 = test system: TK-10
LOX IMVI = test system: LOX IMVI
MDA-MB-435 = test system: MDA-MB-435
SN12C = test system: SN12C
786-0 = test system: 786-0
BT-549 = test system: BT-549
SK-MEL-28 = test system: SK-MEL-28
NCI-H522 = test system: NCI-H522
K562 = test system: K562
T47D = test system: T47D
M14 = test system: M14
HOP-62 = test system: HOP-62
SNB-75 = test system: SNB-75
SK-MEL-5 = test system: SK-MEL-5

Structure (SMILES)	GI50 (CAKI-1)	GI50 (SF-268)	GI50 (EKVX)	GI50 (SNB-19)	GI50 (OVCAR-8)	GI50 (SW-620)	GI50 (TK-10)	GI50 (LOX IMVI)	GI50 (MDA-MB-435)	GI50 (SN12C)	GI50 (786-0)	GI50 (BT-549)	GI50 (SK-MEL-28)	GI50 (NCI-H522)	GI50 (K562)	GI50 (T47D)	GI50 (M14)	GI50 (HOP-62)	GI50 (SNB-75)	GI50 (SK-MEL-5)
O=C(CSc1nnc(SCC(=O)NN=C2CCCCC2)s1)NN=C1CCCCC1	> 100 µM (inactive)	> 100 µM (inactive)	> 100 µM (inactive)	> 100 µM (inactive)	> 100 µM (inactive)	> 100 µM (inactive)	> 100 µM (inactive)	> 100 µM (inactive)	> 100 µM (inactive)	> 100 µM (inactive)	> 100 µM (inactive)	> 100 µM (inactive)	> 100 µM (inactive)	> 100 µM (inactive)	> 100 µM (inactive)	> 100 µM (inactive)	> 100 µM (inactive)	> 100 µM (inactive)	> 100 µM (inactive)	> 100 µM (inactive)
Cc1nnc(N)nc1C/C=C/C(C)Sc1ccc(Cl)cc1 (configuration not stated)	7.94 µM (inactive)	3.78 µM (inactive)	4.61 µM (inactive)	5.58 µM (inactive)	16.5 µM (inactive)	9.04 µM (inactive)	15 µM (inactive)	4.4 µM (inactive)	7.73 µM (inactive)	11.1 µM (inactive)	8.41 µM (inactive)	5.22 µM (inactive)	12.3 µM (inactive)	4 µM (inactive)	9.73 µM (inactive)	8.07 µM (inactive)	7.69 µM (inactive)	6.47 µM (inactive)	6.01 µM (inactive)	6.08 µM (inactive)
C[C@@H]1CC[C@@H]2[C@@H](C1)O[C@@H]([C@H](C)OCc1ccccc1)SC2(C)C	34.8 µM (inactive)	32.3 µM (inactive)	45 µM (inactive)	21.3 µM (inactive)	31.5 µM (inactive)	18.9 µM (inactive)	32.1 µM (inactive)	18.4 µM (inactive)	30.3 µM (inactive)	18.7 µM (inactive)	21.2 µM (inactive)	39.4 µM (inactive)	32.1 µM (inactive)	19.7 µM (inactive)	19.6 µM (inactive)	15.7 µM (inactive)	16.8 µM (inactive)	34.4 µM (inactive)	16.4 µM (inactive)	18.1 µM (inactive)
CCCCNC(=S)N/N=C/c1cccc(C)n1	33.9 µM (inactive)	34 µM (inactive)	24.8 µM (inactive)	39.3 µM (inactive)	33.5 µM (inactive)	49.1 µM (inactive)	29.7 µM (inactive)	34.9 µM (inactive)	42.2 µM (inactive)	30.1 µM (inactive)	35.2 µM (inactive)	49.4 µM (inactive)	48.5 µM (inactive)	18.6 µM (inactive)	13.2 µM (inactive)	26 µM (inactive)	25.1 µM (inactive)	23.9 µM (inactive)	67.6 µM (inactive)	43 µM (inactive)
COc1ccc(NC(=O)C(=O)Cc2nc3ccc(C(=O)c4ccccc4)cc3nc2O)c([N+](=O)[O-])c1	14.9 µM (inactive)	34.8 µM (inactive)	28.3 µM (inactive)	62.8 µM (inactive)	18.8 µM (inactive)	19.1 µM (inactive)	24.9 µM (inactive)	25.2 µM (inactive)	12.1 µM (inactive)	35.7 µM (inactive)	39.1 µM (inactive)	26.9 µM (inactive)	25.8 µM (inactive)	12.8 µM (inactive)	–	17.2 µM (inactive)	35.6 µM (inactive)	34.6 µM (inactive)	17.7 µM (inactive)	22.6 µM (inactive)
O=c1c(Cl)cc2nc3ccccc3sc-2c1Cl	22.1 µM (inactive)	14.9 µM (inactive)	3.22 µM (inactive)	17 µM (inactive)	–	12.5 µM (inactive)	17.9 µM (inactive)	12 µM (inactive)	2.82 µM (inactive)	17 µM (inactive)	21.2 µM (inactive)	11.7 µM (inactive)	18.1 µM (inactive)	12.4 µM (inactive)	6.85 µM (inactive)	5 µM (inactive)	11.7 µM (inactive)	26.1 µM (inactive)	16.2 µM (inactive)	2.92 µM (inactive)
COC(=O)[C@@](NC(=O)OCc1ccccc1)([C@H](C)O)C(F)(F)F	> 100 µM (inactive)	> 100 µM (inactive)	> 100 µM (inactive)	> 100 µM (inactive)	> 100 µM (inactive)	> 100 µM (inactive)	> 100 µM (inactive)	> 100 µM (inactive)	> 100 µM (inactive)	–	> 100 µM (inactive)	> 100 µM (inactive)	> 100 µM (inactive)	> 100 µM (inactive)	> 100 µM (inactive)	> 100 µM (inactive)	> 100 µM (inactive)	> 100 µM (inactive)	> 100 µM (inactive)	> 100 µM (inactive)
O=c1oc2ccccc2cc1-c1nc2ccccc2s1	4.92 µM (inactive)	8.73 µM (inactive)	11.5 µM (inactive)	–	7.74 µM (inactive)	14.3 µM (inactive)	12.6 µM (inactive)	10.1 µM (inactive)	5.36 µM (inactive)	–	4.58 µM (inactive)	17.2 µM (inactive)	21.2 µM (inactive)	6.47 µM (inactive)	3.61 µM (inactive)	10.7 µM (inactive)	16.5 µM (inactive)	6.14 µM (inactive)	6.3 µM (inactive)	19 µM (inactive)
Cn1c(=O)c2nc(CSCc3ccccc3)[nH]c2n(C)c1=O	> 100 µM (inactive)	> 100 µM (inactive)	24.8 µM (inactive)	> 100 µM (inactive)	> 100 µM (inactive)	–	> 100 µM (inactive)	> 100 µM (inactive)	> 100 µM (inactive)	80.5 µM (inactive)	> 100 µM (inactive)	> 100 µM (inactive)	> 100 µM (inactive)	35.6 µM (inactive)	78 µM (inactive)	> 100 µM (inactive)	> 100 µM (inactive)	> 100 µM (inactive)	> 100 µM (inactive)	71.6 µM (inactive)
Nc1ccc2c(c1)C(=O)c1c(F)cccc1-2	23.6 µM (inactive)	17.9 µM (inactive)	0.656 µM (active)	53.1 µM (inactive)	43.1 µM (inactive)	34.5 µM (inactive)	47.2 µM (inactive)	41.6 µM (inactive)	> 100 µM (inactive)	39.1 µM (inactive)	29.4 µM (inactive)	39.3 µM (inactive)	34.2 µM (inactive)	34.5 µM (inactive)	–	63.8 µM (inactive)	50.4 µM (inactive)	30.3 µM (inactive)	10.4 µM (inactive)	25.5 µM (inactive)
C=CCC1(O)c2cccc(O)c2C(=O)c2c(O)cccc21	31.2 µM (inactive)	32.7 µM (inactive)	27.5 µM (inactive)	–	32.2 µM (inactive)	31.6 µM (inactive)	32.7 µM (inactive)	20.9 µM (inactive)	9.51 µM (inactive)	–	35.8 µM (inactive)	29.6 µM (inactive)	31.7 µM (inactive)	23.8 µM (inactive)	21 µM (inactive)	23.3 µM (inactive)	20.8 µM (inactive)	80.2 µM (inactive)	21.1 µM (inactive)	29.4 µM (inactive)
CN(Cc1ccccc1)C(=S)S [SODIUM BENZYL(METHYL)CARBAMODITHIOATE]	37.4 µM (inactive)	53.3 µM (inactive)	47 µM (inactive)	–	33 µM (inactive)	51.3 µM (inactive)	–	27.9 µM (inactive)	43.2 µM (inactive)	52.4 µM (inactive)	19.2 µM (inactive)	77.4 µM (inactive)	69.2 µM (inactive)	27.8 µM (inactive)	34.1 µM (inactive)	78.7 µM (inactive)	23.3 µM (inactive)	43.2 µM (inactive)	> 100 µM (inactive)	48.3 µM (inactive)
CC(=O)O[C@H]1CC(C)(C)C(=C=C/C(C)=C/C=C/C=C/C=C(C)/C=C2C=C(/C=C/[C@@]34O[C@]3(C)C[C@@H](O)CC4(C)C)C(=O)O/2)[C@](C)(O)C1	30.8 µM (inactive)	15 µM (inactive)	> 10 µM (inactive)	30.6 µM (inactive)	3.76 µM (inactive)	19.6 µM (inactive)	0.959 µM (active)	–	14.8 µM (inactive)	11.7 µM (inactive)	16 µM (inactive)	2.51 µM (inactive)	23.6 µM (inactive)	3.99 µM (inactive)	10 µM (inactive)	4.27 µM (inactive)	11.7 µM (inactive)	13.3 µM (inactive)	10 µM (inactive)	8.43 µM (inactive)
O=C1c2ccccc2-c2c1c1ccccc1c(=O)n2Cc1ccccc1	56.8 µM (inactive)	58.5 µM (inactive)	> 100 µM (inactive)	–	> 100 µM (inactive)	> 100 µM (inactive)	40.7 µM (inactive)	> 100 µM (inactive)	> 100 µM (inactive)	> 100 µM (inactive)	28.6 µM (inactive)	62.7 µM (inactive)	> 100 µM (inactive)	54.3 µM (inactive)	> 10 µM (inactive)	> 100 µM (inactive)	> 100 µM (inactive)	38.6 µM (inactive)	56.4 µM (inactive)	73.6 µM (inactive)
